In US20250161295A1, “EXATECAN FORMULATION” (Yale University, priority 2022, published 2025):
Where a name gives a salt, the structure may show the parent alone.

How the values were obtained:
[1] = test system: SCC tumors (PDVC57 cells); assay: Intratumoral injection of exatecan in PDVC57 SCC tumors (Example 1, Experiments 1 and 2): tumor outcome; format: in vivo, C57BL/6J mice
Procedure: (§1) Exatecan mesylate (“EXA”) (DX895If; MedChemExpress #HY-13631A) was dissolved in sterile dH20 (Invitrogen 10977-023) to prepare a 5 mg/mL or a 10 mg/mL stock solution. […] The concentration was confirmed by HPLC and further dilutions prepared as needed in sterile dH2O.
Control groups received an equal volume of sterile dH2O.
16 days post-treatment, when the first vehicle control tumors reached 1 cm in one dimension, half (N=5) of each group was harvested for histology: tumors were measured, ranked by volume (V=(½)(W^2×L)), and every-other one harvested (#1, 3, 5, 7, and 9 were harvested and #2, 4, 6, 8, and 10 were not).

[2] = pH-dependent exatecan mesylate solubility in phosphate buffers (precipitate rating); format: physicochemical; design: key to Precipitate rating (Yes/No): Precipitate rating “Yes” means visible precipitate observed at 10× magnification; “No” means no visible precipitate observed at 10× magnification
Procedure: Materials and methods A water-based formulation was made containing exatecan mesylate at a concentration of 10 mg/mL exatecan mesylate in water (Invitrogen UltraPure Distilled Water #10977-015). Phosphate buffers A and B were made by dissolving either 1M potassium phosphate monobasic (KH2PO4) for buffer A or 1M potassium phosphate dibasic ([…]) for buffer B in distilled water. Solutions with pH values ranging between 4.3 and 9.6 were prepared by mixing buffer A (pH 4.3) with buffer B (pH 9.6) at pre-determined percentages. A pH meter was used to confirm the pH of the resulting phosphate buffer solutions by dipping the electrode into the solution.
To determine the pH solubility of the water-based formulation, 5 μL of the 10 mg/mL EXA in DI water was added to 100 μL 1M phosphate buffer at varying pH levels in a 96-well plate to produce a final concentration of […] EXA per milliliter. The solubility tests were conducted at pH 4.30 (0% buffer B), pH 5.6 (10% buffer B), pH 6.1 (20% buffer B), pH 6.4 (30% buffer B), pH 6.7 (40% buffer B), pH 7.0 (50% buffer B), pH 7.2 (60% buffer B), pH 7.5 (70% buffer B), pH 7.8 (80% buffer B), pH 8.2 (90% buffer B) and pH 9.6 (100% buffer B). Precipitation was assessed and images of the precipitate at the bottom of the 96-well plate were taken after 1 hour.

[3] = Dissolution of exatecan mesylate in sterile dH2O (stock preparation); format: physicochemical
Procedure: as §1

[4] = test system: PDVC57 cells (SCC tumors); assay: Single intratumoral injection of water-based exatecan mesylate formulation in mouse model of SCC (Example 3); format: in vivo, C57BL/6J mice
Procedure: Six-week old female C57BL/6J mice were used in this study.
PDVC57 cells were developed in, and obtained from, the laboratory of Dr. Allan Balmain (Quintanilla, et al., Carcinogenesis 1991, 12 (10), 1875-1881). Mice were anesthetized with avertin and their flanks shaved. The mice were then given an intradermal injection with of 5 million PDVC57 cells in suspension in 100 μL PBS. A 1 cc syringe fitted with a 27 g needle was used for the intradermal injection.
Seven days following tumor cell inoculation, the mice were given either a single intratumoral injection of 10 mg/mL exatecan mesylate in ultrapure distilled water (Invitrogen, Catalog #10977-015) or a vehicle injection using a BD insulin syringe (30-gauge×8 mm needle; #328468). The vehicle was invitrogen UltraPure Distilled Water #10977-015. The treatment volume was 0.02 mL.
Mice were sedated. Calipers were used to measure tumor diameter. Tumor volume was calculated from micrometer measurements using the following formula: […]
When tumors reached the endpoint, i.e., tumor volume of 1 cm^3, mice were euthanized by isoflurane inhalation and tumors dissected away from subcutaneous tissue. Isolated tumors were bisected along the longest axis, fixed in 10% neutral buffered fonnalin and submitted to Yale Research Pathology for embedding, sectioning, and H&E staining. Resulting slides were scanned using a Zeiss AxioObserver Z1 with TissueGnostics TissueFAXS software. Images were analyzed using Fiji software.
In a first experiment, 20 mice with tumors ranging in size from 45-85 mm^3 were examined. The group size was 10. Ten of the mice were given a single injection of a water-based formulation containing exatecan mesylate (10 mg/mL), while the other 10 mice received a vehicle injection of ultrapure DI water and served as the control group. For each group (experimental group or control), half of the mice were harvested 16 days post-treatment for histological assessment, the other half were harvested 32 days post-treatment if they had discernible tumors or monitored until day 66 if no palpable tumors were observed.

[5] = test system: PDVC57 cells (SCC tumors); assay: Single intratumoral injection of water-based exatecan mesylate formulation, followed to endpoint tumor volume 1 cm^3 (Example 4); format: in vivo, C57BL/6J mice
Procedure: In a second experiment, 15 mice with tumors ranging in size from 50-100 mm^3, calculated as described above, were examined.
PDVC57 cells were injected into 6-week-old female C57BL/6J mice. Treatment was administered by a single intratumoral injection seven days after tumor cell inoculation. Intratumoral injection was performed using BD insulin syringe (30-gauge×8 mm needle; #328468). The vehicle was Invitrogen UltraPure Distilled Water #10977-015.
The experimental group received 10 mg/mL exatecan. The treatment volume was 0.02 mL. Ten of the mice were given a single injection of a water-based formulation containing exatecan mesylate while the other 5 mice received a vehicle injection of ultrapure DI water and served as the control group. These mice were observed until the endpoint at which their tumor volume was 1 cm^3. […]

[6] = test system: PDVC57 cells (SCC tumors); assay: Titrated doses of a single injection of water-based exatecan mesylate formulation on tumor size (Example 5); format: in vivo, C57BL/6J mice
Procedure: In a third experiment, 15 mice (i.e., five groups each containing three mice) with tumors ranging in size 59-80 mm^3, calculated as described above, were examined. PDVC57 cells were injected into 6-week-old female C57BL/6J mice. Treatment was administered seven days after tumor cell inoculation. Intratumoral injection performed using BD insulin syringe (30-gauge×8 mm needle; #328468). Mice were randomly assigned to one of five groups and were given a single intratumoral injection of either the vehicle (UltraPure Distilled Water, Invitrogen, #10977-015) or one of the following concentrations of the water-based formulation containing exatecan mesylate: 10 mg/mL, 5 mg/mL, 2.5 mg/mL or 1.25 mg/mL for a total treatment volume of 0.02 mL. All the mice were harvested 14 days post treatment for histological assessments.

[7] = test system: ID8-Luc tumor cells; assay: BNP-111 in vivo efficacy in ID8 ovarian cancer model (IVIS tumor burden); design: species or system C57Bl/6 mice; conditions: 2.5 mpk i.p. once weekly x4; day 56
Procedure: Luciferase expressing ID8-Luc tumor cells were washed twice in sterile PBS, resuspended in sterile PBS and a 1 ml 27 G syringe used to inject 1 million cells intraperitoneally (i.p.) into syngeneic female C57Bl/6 mice.

[8] = mouse, in vivo
Procedure: (§2) SCC tumors were established by subcutaneous injection of 5 million PDVC57 cells into the right flank of syngeneic C57BL/6J mice. Seven days later, when tumors ranged from 4.5-5.5 mm in diameter, mice were evenly distributed among the treatment groups (N=5-10 mice/group, see below) and received intratumoral injections of vehicle (dH2O) or exatecan.
(§3) A 0.5-mL 31 G syringe (BD Insulin Syringe #328468) was used to deliver 0.1 mg or 0.2 mg exatecan in a 20-microliter volume, or 0.4 mg in a 40-microliter volume (because of solubility limitations). Control groups received an equal volume of sterile dH2O. The needle was placed into the tumor and the appropriate volume was slowly injected (approximately over 5 sec). The needle was held in place for 10 seconds after the injection was complete, then slowly removed while maintaining finger pressure on the injection site.

[9] = test system: SCC tumors (PDVC57 cells); assay: Intratumoral injection of exatecan in PDVC57 SCC tumors (Example 1, Experiments 1 and 2): tumor outcome; format: in vivo, C57BL/6J mice; conditions: EXA 0.2 mg single intratumoral injection; of 6 mice harvested (4 not harvested)
[10] = Intratumoral injection of exatecan (Example 1): toxicity
Procedure: as §2, §3

[11] = 10 mg/mL, 0.02 mL single injection

## CC[C@@]1(O)C(=O)OCc2c1cc1n(c2=O)Cc2c-1nc1cc(F)c(C)c3c1c2[C@@H](N)CC3 [EXA, Exatecan mesylate]
[1]; 0.2 mg, the five mice not harvested on day 16
  Mice whose tumor progressed to 1 cm: one of the remaining five
[1]; 0.2-mg dose per animal
  Efficacy of treatment (summary): very effective
[1]; EXA 0.1 mg x2
  Tumor incidence: 57%
  Tumor incidence (mice): 4 of 7
[1]; EXA 0.1 mg x2, day 36
  Mice remaining (days post-treatment), no palpable tumor: 2 (day 36) -
[1]; EXA 0.1 mg x2, of 5 mice harvested (2 not harvested)
  Histology (N): mice with tumor: Tumor in 4
[1]; EXA 0.2 mg single injection, N=10
  Tumor incidence: 20%
[1]; EXA 0.2 mg single injection, day 53
  Mice remaining (days post-treatment), no palpable tumor: 4 (day 53) -
[1]; EXA 0.2 mg single injection, day 53, listed as exatecan
  Mice remaining (days post-treatment), no palpable tumor: four
[1]; EXA 0.4 mg single injection, day 36
  Mice remaining (days post-treatment), no palpable tumor: 1 (day 36) -
[1]; two doses of 0.1 mg per animal separated by 3 days
  Efficacy compared with single 0.2 mg dose: less effective
[2]; 1M phosphate buffer
  pH at which enhanced precipitation and decrease in solubility is shown: ≥ 7.12
[2]; Control (distilled water), 0% buffer A, 0% buffer B, pH 7
  Precipitate rating (Yes/No): No
[2]; EXA/DI water mixture added to phosphate buffer
  Onset of precipitation after addition to phosphate buffer: generally immediate
[2]; Sample 1: 100% buffer A, 0% buffer B, pH 4.3
  Precipitate rating (Yes/No): No
[2]; Sample 2: 90% buffer A, 10% buffer B, pH 5.6
  Precipitate rating (Yes/No): No
[2]; Sample 3: 80% buffer A, 20% buffer B, pH 6.1
  Precipitate rating (Yes/No): No
[2]; Sample 4: 70% buffer A, 30% buffer B, pH 6.4
  Precipitate rating (Yes/No): No
[2]; Sample 5: 60% buffer A, 40% buffer B, pH 6.7
  Precipitate rating (Yes/No): Yes
[2]; Sample 6: 50% buffer A, 50% buffer B, pH 7.0
  Precipitate rating (Yes/No): Yes
[2]; Sample 7: 40% buffer A, 60% buffer B, pH 7.2
  Precipitate rating (Yes/No): Yes
[2]; Sample 8: 30% buffer A, 70% buffer B, pH 7.5
  Precipitate rating (Yes/No): Yes
[2]; Sample 9: 20% buffer A, 80% buffer B, pH 7.8
  Precipitate rating (Yes/No): Yes
[2]; Sample 10: 10% buffer A, 90% buffer B, pH 8.2
  Precipitate rating (Yes/No): Yes
[2]; Sample 11: 0% buffer A, 100% buffer B, pH 9.6
  Precipitate rating (Yes/No): Yes
[3]; 10 mg/mL stock
  Dissolution in sterile dH2O: warming to 60 °C plus sonication and vortexing were needed
[3]; at 5 mg/mL
  Dissolution in sterile dH2O: dissolves immediately
[4]; [11]
  Mice remaining (day 66 post-treatment), no palpable tumor: 4 - no
  Tumor incidence overall: (20%)
  Tumor incidence overall (mice): 2 of 10
[4]; 10 mg/mL, 0.02 mL single injection, 4 mice not harvested
  Day 32 harvest for histology: tumor in: 1 of 1. 4
[4]; 10 mg/mL, 0.02 mL single injection, assessed at day 16 and day 66
  % of mice that eliminated their tumor: 80%
[4]; 10 mg/mL, 0.02 mL single intratumoral injection
  Day 16 harvest for histology: tumor in: 1 of 5
[4]; 5 mice per group
  Histological assessment: mice with no discernible tumor: 4 out of 5
[4]; single dose, histology
  Inflammation of surrounding tissue compared to vehicle-treated mice: decreased inflammation
  Tissue damage: minimal tissue damage
[5]; 10 mg/mL, 0.02 mL single injection, through day 77
  Mice with tumors that reached endpoint volume (1 cm^3): 4 of 10
[5]; 77 days post-treatment, 10 mg/mL, 0.02 mL
  Mantel-Cox log rank test p (survival vs dH2O vehicle): < 0.0001
[5]; Day 77 post-treatment
  Cure: 60%
  Mice remaining with no palpable tumor: 6 of the 10
[5]; day 22 post-treatment, 10 mg/mL, 0.02 mL
  Mice with a large tumor (clinical images): 1 of 10
[5]; the 4 mice that reached 1 cm^3
  Time at which tumors reached endpoint volume: 34-52 days post-treatment
[6]; 2.5 mg/mL, 0.02 mL, 14 days
  Tumor size compared to vehicle: almost complete reduction in tumor size
[6]; 5 mg/mL, 0.02 mL, 14 days
  Tumor size compared to vehicle: almost complete reduction in tumor size
[6]; 10 mg/mL, 0.02 mL, 14 days
  Tumor size compared to 1.25 mg/mL and vehicle: significantly reduced tumors
[6]; all doses administered (10, 5, 2.5, 1.25 mg/mL; 0.02 mL), 14 days post treatment
  Tumor size compared to vehicle: reduced tumor size
[7]
  Reduction of tumor burden (photon flux): 62.16%
[8]
  Tolerability compared with single 0.2 mg dose: less well tolerated
[9]
  Histology (N): mice with tumor: Tumor in 2
[10]; 0.4 mg per animal
  Toxicity (summary): lethality
[10]; EXA 0.1 mg x2 (day 0 and day 3), of 9 mice
  Toxicity: number of mice in which lethal: Lethal in 2 of
[10]; EXA 0.4 mg single injection, of 8 mice
  Toxicity: number of mice in which lethal: Lethal in 7 of
